We go through four substances from patent US20120083522A1, “MODULATION OF INFLAMMATORY RESPONSES BY FACTOR XI” (Isis Pharmaceuitcals, inc., priority 2009, published 2012).

In the oligonucleotide strings, read from the 5' end, every base follows the letter of its sugar. An asterisk marks phosphorothioate; unmarked linkages are phosphodiester. Other units and linkages are bracketed, terminal groups are in braces. A string of capitals states the bases alone. e = 2'-O-(2-methoxyethyl) (MOE); [5mC] = 5-methylcytosine; d = 2'-deoxy (DNA)

For data set [1], the system named is human Factor XI mRNA. Kind of data set: Antisense inhibition of human Factor XI in HepG2 cells, 75 nM, lipofectin (Example 1). Format: cell-based. Particulars: HepG2, 75 nM, approximately 24 hours, gapmers targeted to SEQ ID NO: 1, relative to untreated control cells. As to the method:
Antisense oligonucleotides targeted to a Factor XI nucleic acid were tested for their effects on Factor XI mRNA in vitro. Cultured HepG2 cells at a density of 10,000 cells per well were transfected using lipofectin reagent with 75 nM antisense oligonucleotide. After a treatment period of approximately 24 hours, RNA was isolated from the cells and Factor XI mRNA levels were measured by quantitative real-time PCR. Factor XI mRNA levels were adjusted according to total RNA content, as measured by RIBOGREEN®. Results are presented as percent inhibition of Factor XI, relative to untreated control cells.
The chimeric antisense oligonucleotides in Tables 1 and 2 were designed as 5-10-5 MOE gapmers. The gapmers are 20 nucleotides in length, wherein the central gap segment is comprised of 10 2′-deoxynucleotides and is flanked on both sides (in the 5′ and 3′ directions) by wings comprising 5 nucleotides each. Each nucleotide in the 5′ wing segment and each nucleotide in the 3′ wing segment has a 2′-MOE modification. The internucleoside linkages throughout each gapmer are phosphorothioate (P═S) linkages. All cytidine residues throughout each gapmer are 5-methylcytidines. “Target start site” indicates the 5′-most nucleotide to which the gapmer is targeted. “Target stop site” indicates the 3′-most nucleotide to which the gapmer is targeted. […]

Data set [2] can be described thus: Tolerability in CD1 mice: body and organ weight (Example 25). Particulars: 50 mg/kg s.c. twice per week for 6 weeks. The data set is classed as in vivo.
A short description of data set [3]: Tolerability in CD1 mice: liver function (Example 25). Particulars: 50 mg/kg s.c. twice per week for 6 weeks, plasma. The data set is classed as in vivo.
Data set [4] is described as follows: Tolerability in CD1 mice: kidney function (Example 25). The following applies: 50 mg/kg s.c. twice per week for 6 weeks, plasma. Format: in vivo.
A short description of data set [5]: Tolerability in CD1 mice: hematology assays (Example 25). Format: in vivo. On the set-up: RBC / WBC / Neutrophil / Lymphocyte / Platelets: unit not given here. The following applies: 50 mg/kg s.c. twice per week for 6 weeks, blood.
Data set [6] is described as follows: Cynomolgus monkeys: body and organ weights (Example 30). Format: in vivo. Particulars: day 55. As to the method: (§1) Groups, each consisting of two male and two female monkeys, were injected subcutaneously with 25 mg/kg of ISIS 416850, ISIS 449709, ISIS 445522, ISIS 449710, ISIS 449707, ISIS 449711, ISIS 449708, 416858 and ISIS 445531. Antisense oligonucleotide was administered to the monkeys at 25 mg/kg three times per week for week 1 and 25 mg/kg twice per week for weeks 2 to 8. A control group, consisting of two male and two female monkeys was injected subcutaneously with PBS according to the same dosing regimen. Body weights were taken 14 days and 7 days before the start of treatment and were then measured weekly throughout the treatment period. Blood samples were collected 14 days and 5 days before the start of treatment and subsequently several times during the dosing regimen for measurement of various hematologic factors. On day 55, the monkeys were euthanized by exsanguination while under deep anesthesia, and organs harvested for further analysis.
Organ weights were taken after the animals were euthanized on day 55, and livers, kidneys and spleens were harvested.

Data set [7] relates to IL-1β, IL-6, IFN-γ, TNF-α, IL-8, MIP-1α, MCP-1, MIP-10, RANTES. Kind of data set: Cynomolgus monkeys: cytokine and chemokine assays (Example 30). The data set is classed as in vivo. As to the method: as §1
Blood samples obtained from all monkey groups were sent to Pierce Biotechnology (Woburn, Mass.) for measurements of chemokine and cytokine levels. Levels of IL-1β, IL-6, IFN-γ, and TNF-α were measured using the respective primate antibodies and levels of IL-8, MIP-1α, MCP-1, MIP-10 and RANTES were measured using the respective cross-reacting human antibodies. Measurements were taken 14 days before the start of treatment and on day 55, when the monkeys were euthanized.

Data set [8] deals with murine Factor XI mRNA. Kind of data set: In vivo antisense inhibition of murine Factor XI: liver RNA analysis (Example 10). Particulars: BALB/c mice, relative to PBS control. As to the method:
Several antisense oligonucleotides targeted to murine Factor XI mRNA (GENBANK Accession No. NM_028066.1, incorporated herein as SEQ ID NO: 6) showing statistically significant dose-dependent inhibition from the in vitro study were evaluated in vivo. BALB/c mice were treated with ISIS 404057 ([…], target start site 487, incorporated herein as SEQ ID NO: 10) and ISIS 404071 ([…], target start site 869, incorporated herein as SEQ ID NO: 11).
BALB/c mice were injected with 5 mg/kg, 10 mg/kg, 25 mg/kg, or 50 mg/kg of ISIS 404057 or ISIS 404071 twice a week for 3 weeks. A control group of mice was injected with phosphate buffered saline (PBS) twice a week for 3 weeks. Mice were sacrificed 5 days after receiving the last dose. Whole liver was harvested for RNA analysis and plasma was collected for protein analysis.
RNA was extracted from liver tissue for real-time PCR analysis of Factor XI. […] Results are presented as percent inhibition of Factor XI, relative to control.

In data set [9] the test system is collagen-induced arthritis model. Kind of data set: Arthritis Study B: collagen-induced arthritis, clinical effects (Example 11). The data set is classed as in vivo, DBA/1J mice. The following applies: Arthritis Study B, 20 mg/kg twice a week for ten weeks, compared to untreated mice. As to the method: The effect of inhibition of Factor XI and its role in fibrin accumulation in the joints leading to joint inflammation and rheumatoid arthritis was evaluated in a murine collagen-induced arthritis (CIA) model. […] Arthritis induced in mice administered collagen can be visually assessed and clinically scored as described by Marty et al. (J Clin Invest, 107:631-640, 2001) where 1 point is given for each swollen digit except the thumb (maximum, 4), 1 point is given for the tarsal or carpal joint, and 1 point is given for the metatarsal or metacarpal joint with a maximum score of […]. Each paw was graded individually, the cumulative clinical arthritic score per mouse reaching a maximum of 22 points
(§2) In a group of 20 DBA/1J mice, 20 mg/kg of ISIS 404071 were injected subcutaneously twice a week for ten weeks. In a second group of 20 DBA/1J mice, 20 mg/kg of ISIS 404057 were injected subcutaneously twice a week for ten weeks. In a third control group of 20 DBA/1J mice, 20 mg/kg of ISIS 421208 were injected subcutaneously twice a week for ten weeks. Two control groups of 20 mice each were injected with PBS twice a week for ten weeks.
Two and a half weeks after the first oligonucleotide dose, type II bovine collagen in complete Freund's adjuvant was injected subcutaneously at the base of the tail in all the experimental groups and one PBS control group. A booster injection containing 100 μg collagen type II in incomplete Freund's adjuvant was injected subcutaneously at the base of the tail at a different injection site on day 21 after the first collagen injection in these groups.
(§3) Mice in all groups were examined daily after day 30 after the first collagen injection for the visual appearance of arthritis in peripheral joints. The results in Table 22 are expressed as percent change compared to the PBS control except for the liver and spleen weight.

For data set [10], the system named is Factor XI mRNA. In words: Arthritis Study B: liver Factor XI mRNA. Format: in vivo, DBA/1J mice. The following applies: FIG. 4B. As to the method:
as §2, §3
The difference between the effective of the two Factor XI antisense oligonucleotides may be related to the relative effectiveness of each oligonucleotide in inhibiting Factor XI mRNA as shown in FIG. 4B.

The subject of data set [11] is DSS-induced colitis model. Kind of data set: Colitis Study B: body weight and colon length. Format: in vivo, Swiss Webb mice. As to the method: (§4) In a first group of 8 Swiss Webb mice, 20 mg/kg of ISIS 404071 was injected subcutaneously twice a week for 3 weeks. In a second group of 8 Swiss Webb mice, 20 mg/kg of ISIS 404057 was subcutaneously injected twice a week for 3 weeks. In a third control group of 8 Swiss Webb mice, 20 mg/kg of ISISI 421208 was injected subcutaneously twice a week for 3 weeks. Two control groups of 8 mice each were injected with PBS twice a week for 3 weeks. After the oligonucleotide treatment, 4% DSS in water was administered ad libitum for 6 days to all the experimental groups and one PBS control group.
(§5) Mice in all groups were weighed at day 0 and daily after administration of DSS. Mice were sacrificed at the end of the study on day 7 after DSS was administered, their livers and colons were harvested for RNA analysis, and their body weights and colon lengths were measured.

In data set [12] the test system is murine Factor XI mRNA. Kind of data set: Colitis Study B: Factor XI mRNA in the liver. Format: in vivo, Swiss Webb mice. The following applies: DSS-induced colitis, day 7, 20 mg/kg s.c. twice a week for 3 weeks, percent change compared to the PBS control. As to the method:
as §4, §5
RT-PCR analysis of Factor XI mRNA was performed. As presented in Table 27 and FIG. 10, antisense oligonucleotides targeting Factor XI achieved statistically significant dose-dependent reduction of murine Factor XI over the PBS control in the liver. All the measurements are normalized to cyclophilin.
All the results in Table 27 are expressed as percent change compared to the PBS control.

The mark [13] stands for this setting: day −14 (before start of treatment).
Where [14] appears, read: DSS-induced colitis, day 7, 20 mg/kg s.c. twice a week for 3 weeks, percent change compared to the PBS control.

Turning to “412213 (antisense eA*eA*eA*e[5mC]*eA*dA*dG*d[5mC]*dA*dA*d[5mC]*d[5mC]*dG*dG*dG*eA*eT*eG*eA*eT) [compound 412213]”, in data set [1], the “% inhibition” value stood at 71%.

As to “ISIS 445503: microwalk gapmer of Table 51 (antisense eG*e[5mC]*eA*eT*eT*eG*dG*dT*dG*d[5mC]*dA*d[5mC]*dA*dG*eT*eT*eT*e[5mC]*eT*eG)”, the “Body weight (increase over PBS control weight before start of treatment)” value in data set [2] was determined as 9 g. In addition, in data set [2] (end of study), the “Kidney weight as percentage of body weight” value is 1.4%, the “Liver weight as percentage of body weight” value worked out at 8% and the “Spleen weight as percentage of body weight” value was found to be 0.6%. In data set [3], the ALT is listed as 1314 IU/L, the AST was determined as 852 IU/L, the Albumin came out at 3.4 mg/dL and the Bilirubin is recorded as 0.28 mg/dL. In data set [4], this substance returned a BUN of 29 mg/dL. Moreover, in [5], the HCT is 46%, the Hemoglobin was found to be 13.6 g/dL, the Lymphocyte is 6436 and the Neutrophil was 1475. For the same substance, in [5], the Platelets is 309, the RBC came out at 9.2 and the WBC amounted to 8.

Regarding “ISIS 449711: microwalk gapmer of Table 53 (antisense eA*e[5mC]*dA*dG*dT*dT*dT*d[5mC]*dT*dG*dG*d[5mC]*eA*eG)”, the “spleen weight (in words)” value in data set [6] was “caused increase in spleen weight”. In [7] (25 mg/kg s.c., day 55), this substance had an IL-1β level of 146 pg/mL and an MIP-1β level of 91 pg/mL. In data set [7] (setting [13]), the IL-1β level stood at 79 pg/mL and the MIP-1β level is given as 24 pg/mL.

In the case of “TCCTGGCATTCTCGAGCATT (eT*e[5mC]*e[5mC]*eT*eG*dG*d[5mC]*dA*dT*dT*d[5mC]*dT*d[5mC]*dG*dA*eG*e[5mC]*eA*eT*eT) [ISIS 404057, 5-10-5 MOE gapmer targeting murine Factor XI, target start site 487]”, the “% inhibition” value in data set [8] (5 mg/kg twice a week for 3 weeks) was 40%; in data set [8] (10 mg/kg twice a week for 3 weeks), 64%; in data set [8] (25 mg/kg twice a week for 3 weeks) it was 85%; in data set [8] (50 mg/kg twice a week for 3 weeks) it was 95%. In data set [9], the “amount of arthritis assessed (in words)” value was “did not affect the amount of arthritis”. In addition, the “Factor XI inhibition in liver (in words)” value in [10] is “lack of Factor XI inhibition”. Besides, in data set [11] (Colitis Study B, FIG. 9), the “body weight (in words)” value is given as “did not have any significant change in body weight”. Also, the Body weight in data set [11] (setting [14]) is −16%. The Colon length in [11] (setting [14]) is on record as −11%. The “Liver Factor XI mRNA” value in data set [12] is −50%.
